Measured values as given in BindingDB's records for PubMed 38330869 (National Institute of Pharmaceutical Education and …).

Assay: Inhibition of wild type influenza A virus H5N1 (A/chicken/Hubei/327/2004) matrix protein 2 transfected in yeast assessed as yeast growth restoration measured after 46 to 48 hrs

SMILES	EC50 [nM]
Cc1cc(CNS(=O)(=O)c2ccc(Cl)cc2)c(C)o1	3070
Cc1cc(CNS(=O)(=O)c2ccc([N+](=O)[O-])cc2)c(C)o1	1710
Cc1cc(CNS(=O)(=O)c2ccc(Cl)cc2)c(C)s1	1080
Cc1cc(CNS(=O)(=O)c2ccc(C#N)cc2)c(C)s1	1400
O=[N+]([O-])c1ccc(S(=O)(=O)NCc2csc3ccccc23)cc1	3440
Cc1cc(CNS(=O)(=O)c2ccc(Br)cc2)c(C)s1	1580
Cc1cc(CNS(=O)(=O)c2ccc([N+](=O)[O-])cc2)c(C)s1	2210
